Laboratory results from ChEMBL document CHEMBL1201862, “PubChem BioAssay data set” (2004).
Calls of active or inactive are those of the source.

Experiments:
[1] = biological target: T1, Low molecular weight phosphotyrosine protein phosphatase (Homo sapiens, UniProt P24666); type: functional; conditions: read-out: IC50_Mean
T1 sequence (P24666 whole entry): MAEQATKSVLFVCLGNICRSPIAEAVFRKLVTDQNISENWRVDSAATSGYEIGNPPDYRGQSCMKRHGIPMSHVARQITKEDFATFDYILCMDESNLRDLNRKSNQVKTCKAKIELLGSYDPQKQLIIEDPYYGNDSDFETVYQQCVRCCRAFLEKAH

[2] = biological target: T1, Low molecular weight phosphotyrosine protein phosphatase; type: functional; conditions: read-out: IC50_Mean; remark: listed apart in the source
[3] = THP-1 cell cytotoxicity, dose response, cytotoxicity control for non-replicating M. tuberculosis project (AID 489025); type: functional
[4] = HepG2 cell cytotoxicity, dose response, cytotoxicity control for non-replicating M. tuberculosis project (AID 489018); type: functional; conditions: Mycobacterium tuberculosis
[5] = Vero E6 cell cytotoxicity, dose response, cytotoxicity control for non-replicating M. tuberculosis project, secondary assay (AID 492998); type: functional, VeroE6; conditions: Vero C1008
X-box-binding protein 1 = biological target: T2, X-box-binding protein 1 (Homo sapiens, UniProt P17861); type: functional, Cricetulus griseus;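 note: confirmatory dose-response counter-screen serving a CHOP assay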
T2 sequence (P17861 whole entry): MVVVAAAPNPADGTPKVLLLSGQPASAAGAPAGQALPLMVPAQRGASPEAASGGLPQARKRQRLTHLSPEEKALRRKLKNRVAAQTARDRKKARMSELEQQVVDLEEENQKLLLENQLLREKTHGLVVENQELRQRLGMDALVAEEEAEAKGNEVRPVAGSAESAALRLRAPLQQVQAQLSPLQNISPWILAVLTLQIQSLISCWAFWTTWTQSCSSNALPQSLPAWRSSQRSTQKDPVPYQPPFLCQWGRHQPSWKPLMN

cells = type: functional
Insulin-degrading enzyme [6] = biological target: T3, Insulin-degrading enzyme (Homo sapiens, UniProt P14735); assay: recombinant IDE activation, cell-free – biochemical, fluorescence polarization, counter-screen for IDE activator project, dose response (AID 588681)
T3 sequence (P14735 whole entry): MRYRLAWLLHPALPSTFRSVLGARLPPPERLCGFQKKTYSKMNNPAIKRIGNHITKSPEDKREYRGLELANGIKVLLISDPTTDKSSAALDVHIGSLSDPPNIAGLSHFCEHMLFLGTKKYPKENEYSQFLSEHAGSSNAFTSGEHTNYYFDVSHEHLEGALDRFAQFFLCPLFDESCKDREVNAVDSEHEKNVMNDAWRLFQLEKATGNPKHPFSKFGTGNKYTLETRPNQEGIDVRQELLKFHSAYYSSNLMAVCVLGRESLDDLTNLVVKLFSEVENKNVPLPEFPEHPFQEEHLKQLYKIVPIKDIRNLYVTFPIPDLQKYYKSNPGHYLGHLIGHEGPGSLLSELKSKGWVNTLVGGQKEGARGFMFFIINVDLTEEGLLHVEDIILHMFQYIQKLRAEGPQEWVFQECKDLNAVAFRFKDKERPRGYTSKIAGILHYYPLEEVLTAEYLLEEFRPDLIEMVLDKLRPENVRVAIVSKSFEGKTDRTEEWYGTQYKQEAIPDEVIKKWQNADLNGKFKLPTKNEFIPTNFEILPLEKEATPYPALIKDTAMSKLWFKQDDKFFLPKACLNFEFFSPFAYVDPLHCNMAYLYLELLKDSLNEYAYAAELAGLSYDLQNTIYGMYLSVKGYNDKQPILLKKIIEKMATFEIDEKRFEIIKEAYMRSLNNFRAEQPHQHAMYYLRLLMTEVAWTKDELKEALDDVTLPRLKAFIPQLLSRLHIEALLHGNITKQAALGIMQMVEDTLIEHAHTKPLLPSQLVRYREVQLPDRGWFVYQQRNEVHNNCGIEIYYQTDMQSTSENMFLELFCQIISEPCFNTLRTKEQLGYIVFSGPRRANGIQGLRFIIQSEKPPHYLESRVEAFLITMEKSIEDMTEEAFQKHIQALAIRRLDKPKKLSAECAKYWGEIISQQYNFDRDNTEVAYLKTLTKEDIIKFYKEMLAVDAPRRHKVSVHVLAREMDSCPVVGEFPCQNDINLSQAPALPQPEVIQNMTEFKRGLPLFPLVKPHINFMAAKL

Insulin-degrading enzyme [7] = biological target: T3, Insulin-degrading enzyme; assay: cellular IDE activation of Abeta substrate cleavage – fluorescence polarization, HEK cells, dose response (AID 588439); type: functional, cell-based
HEK293 [8] = assay: membrane integrity loss in HEK cells – cell-based, fluorescence, cytotoxicity control for IDE activator project, dose response (AID 588440); type: functional; conditions: Homo sapiens;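 note: cytotoxicity by LDH release measuring loss of membrane integrity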
HEK293 [9] = assay: optical interference in Abeta FP readout, dose response, artefact control for IDE activator project, biochemical, fluorescence polarization (AID 588442); type: functional, cell-based; conditions: Homo sapiens
Melanocortin receptor 4 = Melanocortin receptor 4 (Homo sapiens, UniProt P32245); type: functional, cell-based;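 note: Cell-based assay with luminescence read-out, confirmatory dose-response testing for agonist activity of biased ligands at MC4R; human U2OS cells with tagged receptor and beta-arrestin; potency of agonists that increase receptor coupling to beta-arrestin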
Sequence of Melanocortin receptor 4 (P32245 whole entry): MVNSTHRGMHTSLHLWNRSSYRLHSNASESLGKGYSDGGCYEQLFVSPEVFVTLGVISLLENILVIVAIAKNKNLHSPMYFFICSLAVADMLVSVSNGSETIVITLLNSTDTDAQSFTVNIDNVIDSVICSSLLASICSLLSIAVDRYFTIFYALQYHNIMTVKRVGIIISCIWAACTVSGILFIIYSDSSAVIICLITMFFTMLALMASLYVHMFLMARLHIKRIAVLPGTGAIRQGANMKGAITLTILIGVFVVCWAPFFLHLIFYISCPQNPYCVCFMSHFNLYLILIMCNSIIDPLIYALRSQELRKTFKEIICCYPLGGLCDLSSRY

[10] = reduction of Shn3 3'UTR-driven luciferase in osteoblasts – cell-based, Clone20 osteoblasts, firefly luciferase, cherry-picked, dose response (AID 624132); type: functional;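 note: firefly luciferase luminescence from reporter carrying the Shn3 3'UTR in osteoblasts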
[11] = loss of viability in HepG2 cells – cell-based, CellTiter-Glo, cherry-picked, cytotoxicity control for Shn3 inhibitor project, dose response (AID 624134); type: functional
[12] = non-specific 3'UTR reporter inhibition in Clone20-Shn3RL – cell-based, Renilla luciferase, cherry-picked, counter-screen for Shn3 inhibitor project, dose response (AID 624133); type: functional
Protein Wnt-3a = Protein Wnt-3a (Mus musculus, UniProt P27467); assay: antagonism of Wnt3a pathway luciferase reporter – Wnt-LIGHT cells, luminescence, selectivity assay for Gli-SUFU antagonist project, dose response (AID 651570); type: functional; conditions: read-out: IC50_Mean;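 note: Wnt-LIGHT reporter cells stimulated with conditioned medium from Wnt3a-producing cells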
Sequence of Protein Wnt-3a (P27467 whole entry): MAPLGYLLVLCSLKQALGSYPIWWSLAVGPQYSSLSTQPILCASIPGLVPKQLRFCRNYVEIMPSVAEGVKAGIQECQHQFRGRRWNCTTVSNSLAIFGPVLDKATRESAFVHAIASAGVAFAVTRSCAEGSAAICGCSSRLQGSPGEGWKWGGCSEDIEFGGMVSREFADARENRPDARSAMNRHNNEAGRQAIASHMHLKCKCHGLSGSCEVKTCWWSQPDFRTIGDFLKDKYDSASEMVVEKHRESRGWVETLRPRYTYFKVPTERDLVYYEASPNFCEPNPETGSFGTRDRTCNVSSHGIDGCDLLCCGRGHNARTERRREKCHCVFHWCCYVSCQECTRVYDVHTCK

[13] = biological target: T4, Corticotropin-releasing factor receptor 2/Corticotropin-releasing factor-binding protein (Homo sapiens, UniProt P24387+Q13324); assay: Dose Response confirmation of uHTS hits for small molecule antagonists of the CRF-binding protein and CRF-R2 receptor complex.; type: functional; conditions: read-out: IC50_Mean
T4 sequence (Q13324 whole entry): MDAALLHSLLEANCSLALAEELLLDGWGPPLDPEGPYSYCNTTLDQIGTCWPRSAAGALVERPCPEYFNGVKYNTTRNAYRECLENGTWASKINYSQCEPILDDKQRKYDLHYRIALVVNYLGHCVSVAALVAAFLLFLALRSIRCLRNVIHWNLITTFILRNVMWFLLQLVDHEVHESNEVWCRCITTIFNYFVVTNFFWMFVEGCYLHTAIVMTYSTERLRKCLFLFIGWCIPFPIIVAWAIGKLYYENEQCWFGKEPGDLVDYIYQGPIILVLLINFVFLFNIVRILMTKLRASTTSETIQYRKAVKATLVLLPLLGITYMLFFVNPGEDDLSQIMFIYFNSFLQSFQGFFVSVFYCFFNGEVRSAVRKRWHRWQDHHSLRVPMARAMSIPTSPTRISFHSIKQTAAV
T4 sequence (P24387 whole entry): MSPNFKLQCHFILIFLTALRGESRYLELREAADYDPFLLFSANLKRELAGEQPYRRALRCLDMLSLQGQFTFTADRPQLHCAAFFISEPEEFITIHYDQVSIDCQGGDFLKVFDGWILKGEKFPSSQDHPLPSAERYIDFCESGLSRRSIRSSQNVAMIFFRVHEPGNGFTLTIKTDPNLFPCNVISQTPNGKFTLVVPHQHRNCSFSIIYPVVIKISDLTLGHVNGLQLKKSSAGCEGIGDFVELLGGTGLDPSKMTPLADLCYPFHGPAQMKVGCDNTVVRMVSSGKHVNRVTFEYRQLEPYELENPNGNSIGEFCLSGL

[14] = biological target: T4, Corticotropin-releasing factor receptor 2/Corticotropin-releasing factor-binding protein; assay: activators of CRF receptor 2 with binding protein – uHTS hits, confirmation (AID 602473); type: functional; conditions: read-out: EC50_Mean
[15] = blockers of CRF-binding protein–CRF-R2 complex – cell-based, uHTS hits, 384-well, dose response (AID 651639); type: functional, Homo sapiens; conditions: read-out: IC50_Mean
[16] = biological target: T5, ATP-dependent translocase ABCB1 (Homo sapiens, UniProt P08183); assay: inhibition of BCRP-mediated JC-1 efflux – Ig-MXP3 cells, flow cytometry, set 2, dose response (AID 504566); type: functional; conditions: read-out: EC50_MICROM_;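 note: flow cytometry median green fluorescence of retained JC-1 dye; potency of efflux pump inhibition measured as rising substrate retention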
T5 sequence (P08183 whole entry): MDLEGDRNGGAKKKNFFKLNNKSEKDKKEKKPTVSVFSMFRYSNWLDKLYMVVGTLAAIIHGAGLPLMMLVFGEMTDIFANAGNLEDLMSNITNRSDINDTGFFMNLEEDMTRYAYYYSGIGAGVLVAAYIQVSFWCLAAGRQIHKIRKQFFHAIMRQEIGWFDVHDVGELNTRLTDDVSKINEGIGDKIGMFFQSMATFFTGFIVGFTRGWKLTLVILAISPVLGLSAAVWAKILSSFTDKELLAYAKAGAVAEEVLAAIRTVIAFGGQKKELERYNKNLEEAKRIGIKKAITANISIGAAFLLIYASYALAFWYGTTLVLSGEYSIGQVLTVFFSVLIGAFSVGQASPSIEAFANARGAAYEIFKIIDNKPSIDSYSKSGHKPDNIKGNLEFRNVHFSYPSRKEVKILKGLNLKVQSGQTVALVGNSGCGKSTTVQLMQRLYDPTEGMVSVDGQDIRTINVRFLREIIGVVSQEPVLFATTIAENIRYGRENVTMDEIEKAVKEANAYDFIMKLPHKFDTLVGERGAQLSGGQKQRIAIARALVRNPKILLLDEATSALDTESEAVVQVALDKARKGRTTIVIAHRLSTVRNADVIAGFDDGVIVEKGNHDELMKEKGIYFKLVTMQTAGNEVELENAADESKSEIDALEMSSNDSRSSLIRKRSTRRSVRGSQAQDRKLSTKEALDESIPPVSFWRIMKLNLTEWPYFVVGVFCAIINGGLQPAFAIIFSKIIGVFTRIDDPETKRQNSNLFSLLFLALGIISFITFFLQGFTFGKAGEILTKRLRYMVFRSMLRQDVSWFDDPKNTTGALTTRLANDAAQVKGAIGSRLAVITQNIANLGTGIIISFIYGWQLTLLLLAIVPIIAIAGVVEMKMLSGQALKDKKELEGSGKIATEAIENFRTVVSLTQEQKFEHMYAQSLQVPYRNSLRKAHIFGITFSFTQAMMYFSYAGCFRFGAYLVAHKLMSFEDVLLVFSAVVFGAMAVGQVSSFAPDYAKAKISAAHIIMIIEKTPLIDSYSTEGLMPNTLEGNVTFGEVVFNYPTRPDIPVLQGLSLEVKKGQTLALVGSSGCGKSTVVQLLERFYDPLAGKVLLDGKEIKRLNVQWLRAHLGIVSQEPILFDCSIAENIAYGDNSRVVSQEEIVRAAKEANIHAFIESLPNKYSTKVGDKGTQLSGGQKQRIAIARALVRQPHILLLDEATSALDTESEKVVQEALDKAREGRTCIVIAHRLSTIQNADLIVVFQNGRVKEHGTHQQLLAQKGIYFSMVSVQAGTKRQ

[17] = biological target: T5, ATP-dependent translocase ABCB1; assay: P-gp JC-1 efflux blockade concentration-response – Jurkat-DNR cells, flow cytometry, set 2, dose response (AID 504569); type: functional; conditions: read-out: EC50_MICROM_;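 note: potency of pump inhibitors that raise cellular JC-1 green fluorescence up to the nicardipine level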

COc1ccccc1CNc1nc(NCc2cnc(C)cn2)c2sccc2n1
IC50 [1]: 5.74 µM (active)
IC50 [2]: 4.31 µM (active)

Cc1c(CN2CCC(CO)(CCOc3ccccc3)CC2)[nH]c2c(Cl)cccc12
CC50 [3]: 12.4 µM (active)
CC50 [4]: 14.5 µM (active)
CC50 [5]: 16.3 µM (active)
Absolute IC50 (XBP1) (X-box-binding protein 1): 10 µM
IC50 (cells): 6.5 µM (active)
EC50 (Insulin-degrading enzyme [6]): > 54.7 µM (inactive)
EC50 (Insulin-degrading enzyme [7]): 14.3 µM (inactive)
IC50 (HEK293 [8]): 22.8 µM (inactive)
EC50 (HEK293 [9]): > 54.7 µM (inactive)
EC50 (Melanocortin receptor 4): > 89.2 µM (inactive)

C=CCOC(=O)c1[nH]c2c(c1C)C(=O)CC(c1cc(OC)c(OC)c(OC)c1)C2 (stereo unspecified)
AC50 [10]: 1.83 µM (active)
AC50 [11]: 53.5 µM (active)
AC50 [12]: 1.28 µM (active)
IC50 (Protein Wnt-3a): 1.89 µM (active)

CCCOc1ccc(C(=O)N2CCN(c3ccc(NC(=O)CC)cc3Cl)CC2)cc1
IC50 [13]: 16 µM (active)
EC50 [14]: > 53 µM (inactive)
IC50 [15]: 16.3 µM (active)

COc1ccc(CN(C)C(=O)c2cccc(NC(=O)CC3SC(N4CCCCC4)=NC3=O)c2)c(OC)c1 (stereo unspecified)
IC50 (Protein Wnt-3a): 21.7 µM (inactive)

COc1ccc(-c2cc3nc(C)cc(N4CCN(C(=O)c5ccco5)CC4)n3n2)cc1
EC50 [16]: 1.52 µM (active)
EC50 [17]: 4.78 µM (active)

O=C1C(=Cc2cn(-c3ccccc3)nc2-c2ccc(OCc3ccccc3F)cc2)SC(=S)N1CCS(=O)(=O)O
IC50 [1]: 12.2 µM (active)
IC50 [2]: 4.12 µM (active)

O=C(C1CCCCC1)N1CCN(c2cc(-c3ccccc3)nc3cc(-c4cccc(Cl)c4)nn23)CC1
EC50 [16]: 1.75 µM (active)
EC50 [17]: 1.71 µM (active)
